What was measured:
[1] = system: serotonin reuptake; conditions: cited from earlier work; for activity in inhibiting serotonin reuptake relative to the racemic mixture: believed, Viazzo et al. 1996, Deprez et al. 1998
[2] = system: patients with a diagnosis of Irritable Bowel Syndrome (IBS) comorbid with fibromyalgia; experiment: 12-week dose escalation monotherapy trial of milnacipran in Irritable Bowel Syndrome; assay type: in vivo, human; conditions: 11 IBS/fibromyalgia patients, 25 to 200 mg daily
Protocol: A 12-week dose escalation monotherapy trial was conducted to evaluate milnacipran's efficacy in patients with a diagnosis of Irritable Bowel Syndrome (IBS) comorbid with fibromyalgia. Patients were washed off of a variety medications-including centrally acting stimulants, antidepressants and sedative-hypnotics-over a 2-4 week period; this was followed by a two-week baseline period. After successful completion of the baseline period, patients were started on milnacipran. All patients were started at a dose of 25 mg daily, and were then escalated weekly over a 4-week period to 50, 100, and finally 200 mg daily, or until dose-limiting toxicity (DLT) was evident. In the event that DLT was evident, the patient was stabilized at the previously well-tolerated dosage, and remained on this dose for eight weeks at stable dose therapy.
The patient global impression of change (PGIC) was administered at clinic visits scheduled during the 4th, 8th, and 12th weeks of treatment. The PGIC is a highly clinically relevant instrument useful for measurement of patient improvement during controlled clinical trials. (Indeed, this instrument was the basis by which alosetron (Lotronex™) was approved by the Food and Drug Administration for the IBS indication.)
The PGIC is a conceptually simple instrument which assesses the patient's overall satisfaction with a course of drug therapy. This is done by asking the patient, “Since the start of the study, my overall status is:” with the patient choosing from the 7 choices depicted in Table 1.
For the present purposes, responses between 1-3 and 5-7 were collapsed into “Improved” and “Worse”, respectively.

[3] = system: NMDA receptor; conditions: Shuto et al. 1995, 1996, 1998, 2001; cited from earlier work
[4] = in humans; Caccia 1998; cited from earlier work
[5] = system: norepinephrine reuptake; conditions: cited from earlier work; for activity in inhibiting norepinephrine reuptake relative to the racemic mixture: believed, Viazzo et al. 1996, Deprez et al. 1998

**Q.** Which IC50 ([1]; reported, Moret et al. 1985, Palmier et al. 1989, read-out: IC50 serotonin reuptake inhibition) does the source give for `CCN(CC)C(=O)[C@@]1(c2ccccc2)C[C@H]1CN` (racemic) [milnacipran, (±)-cis-2-(aminomethyl)-N,N-diethyl-1-phenylcyclopropanecarboxamide] here?
**A.** 200 nM

**Q.** And the “trial conclusion: therapy for IBS (PGIC at 12 weeks)” value [2]?
**A.** safe and effective therapy for IBS

**Q.** And the “most common adverse event” value ([2]; 12 weeks)?
**A.** intermittent nausea

**Q.** And the “nature of milnacipran related adverse events” value ([2]; 12 weeks)?
**A.** transitory in nature

**Q.** What about the “reported AE of constipation” value ([2]; 12 weeks) of the same molecule?
**A.** one

**Q.** And the “serious adverse events during the course of the trial” value ([2]; 12 weeks)?
**A.** no serious adverse events

**Q.** And the “antagonistic properties at the NMDA receptor” value [3]?
**A.** have antagonistic properties at the NMDA receptor

**Q.** And the found in urine [4]?
**A.** found in urine

**Q.** With `CCN(CC)C(=O)[C@@]1(c2ccccc2)C[C@H]1CN` (single isomer, unassigned) [dextrogyral enantiomer of milnacipran] as the molecule, how does the “activity in inhibiting serotonin reuptake relative to the racemic mixture” value [1] read?
**A.** […]

**Q.** What about the “activity in inhibiting norepinephrine reuptake relative to the racemic mixture” value [5] of the same molecule?
**A.** […]

**Q.** Which “activity in inhibiting serotonin reuptake relative to the racemic mixture” value [1] does the source give for `CCN(CC)C(=O)[C@@]1(c2ccccc2)C[C@H]1CN` (single isomer, unassigned) [levrogyral enantiomer] here?
**A.** […]

**Q.** For `CCN(CC)C(=O)C1(c2ccc(O)cc2)CC1CN` (centres unmarked) [para-hydroxylated derivative], which found in urine [4] is on record?
**A.** found in urine

Source: patent US20030203055A1, “Methods of treating visceral pain syndromes” (Cypress Bioscience, Inc., priority 2002, published 2003)
